What was measured:
foxtail, giant [1] = assay: Test A postemergence; assay type: in vivo, Setaria faberii
Summary of the method: (§1)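 Both timings tested concurrently in loam/sand soil: preemergence by directed soil spray, postemergence on plants of 2–10 cm at the one- to two-leaf stage. Greenhouse holding period was approximately 10 days before visual injury assessment (0–100, 0 = no effect).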

velvetleaf [2] = assay: Test A postemergence; assay type: in vivo, Abutilon theophrasti
Summary of the method: as §1

wheat [3] = assay: Test A postemergence; assay type: in vivo, Triticum aestivum
Summary of the method: as §1

corn [4] = assay: Test A postemergence; assay type: in vivo, Zea mays
Summary of the method: as §1

galium [5] = assay: Test C preemergence; assay type: in vivo, Galium aparine; conditions: preemergence; for Plant response rating, Galium: 125 g ai/ha, scale 0 to 100, 0 = no effect, 100 = complete control
Summary of the method: (§2)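 Herbicidal effect is expressed as percent visual control (0–100) judged against untreated plants 13 to 15 days after treatment in the greenhouse. Preemergence pots contained seeds in a soil–sand blend; postemergence plants, 2–18 cm tall, grew in peat-based planting medium.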

corn [6] = assay: Test C preemergence; assay type: in vivo, Zea mays; conditions: preemergence; for Plant response rating, Corn: 125 g ai/ha, scale 0 to 100, 0 = no effect, 100 = complete control
Summary of the method: as §2

foxtail, giant [7] = assay: Test C preemergence; assay type: in vivo, Setaria faberii; conditions: preemergence; for Plant response rating, Foxtail, Giant: 125 g ai/ha, scale 0 to 100, 0 = no effect, 100 = complete control
Summary of the method: as §2

soybean = assay: Test C preemergence; assay type: in vivo, Glycine max; conditions: preemergence; for Plant response rating, Soybean: 125 g ai/ha, scale 0 to 100, 0 = no effect, 100 = complete control
Summary of the method: as §2

waterhemp = assay: Test C preemergence; assay type: in vivo, Amaranthus rudis; conditions: preemergence; for Plant response rating, Waterhemp: 125 g ai/ha, scale 0 to 100, 0 = no effect, 100 = complete control
Summary of the method: as §2

wheat [8] = assay: Test C postemergence; assay type: in vivo, Triticum aestivum; conditions: for Plant response rating, Wheat / Wheat plant response rating: postemergence; for Plant response rating, Wheat: 250 g ai/ha, scale 0 to 100 (0 no effect, 100 complete control); for Wheat plant response rating: scale 0 to 100
Summary of the method: as §2

galium [9] = assay: Test C postemergence; assay type: in vivo, Galium aparine; conditions: for Plant response rating (scale of 0 to 100 where 0 is no effect and 100 is complete control), Galium: Postemergence, 31 g ai/ha, visually evaluated after 13 to 15 days; for Galium plant response rating / Plant response rating, Galium: postemergence; for Galium plant response rating: 62 g ai/ha, scale 0 to 100
Summary of the method: as §2

foxtail, giant [10] = assay: Test C postemergence; assay type: in vivo, Setaria faberii; conditions: for Plant response rating (scale of 0 to 100 where 0 is no effect and 100 is complete control), Foxtail, Giant: Postemergence, 31 g ai/ha, visually evaluated after 13 to 15 days; for Foxtail, Giant plant response rating / Plant response rating, Foxtail, Giant: postemergence; for Foxtail, Giant plant response rating: 62 g ai/ha, scale 0 to 100
Summary of the method: as §2

morningglory = assay: Test C postemergence; assay type: in vivo, Ipomoea coccinea; conditions: for Plant response rating (scale of 0 to 100 where 0 is no effect and 100 is complete control), Morningglory: Postemergence, 31 g ai/ha, visually evaluated after 13 to 15 days; for Morningglory plant response rating / Plant response rating, Morningglory: postemergence; for Morningglory plant response rating: 62 g ai/ha, scale 0 to 100
Summary of the method: as §2

barnyardgrass = assay: Test C postemergence; assay type: in vivo, Echinochloa crus-galli; conditions: for Plant response rating (scale of 0 to 100 where 0 is no effect and 100 is complete control), Barnyardgrass: Postemergence, 31 g ai/ha, visually evaluated after 13 to 15 days; for Barnyardgrass plant response rating / Plant response rating, Barnyardgrass: postemergence; for Barnyardgrass plant response rating: 62 g ai/ha, scale 0 to 100
Summary of the method: as §2

kochia = assay: Test C postemergence; assay type: in vivo, Kochia scoparia; conditions: for Plant response rating (scale of 0 to 100 where 0 is no effect and 100 is complete control), Kochia: Postemergence, 31 g ai/ha, visually evaluated after 13 to 15 days; for Kochia plant response rating / Plant response rating, Kochia: postemergence; for Kochia plant response rating: 62 g ai/ha, scale 0 to 100
Summary of the method: as §2

velvetleaf [11] = assay: Test C postemergence; assay type: in vivo, Abutilon theophrasti; conditions: for Plant response rating, Velvetleaf / Velvetleaf plant response rating: postemergence; for Plant response rating, Velvetleaf: 250 g ai/ha, scale 0 to 100 (0 no effect, 100 complete control); for Velvetleaf plant response rating: scale 0 to 100
Summary of the method: as §2

[12] = Postemergence, 500 g ai/ha, 0 to 100 scale (0 no effect, 100 complete control)
[13] = postemergence, 125 g ai/ha, about 10 days, visual rating on 0 to 100 scale (0 no effect, 100 complete control)
[14] = 31 g ai/ha, visual rating, scale 0 to 100 (0 no effect, 100 complete control), 13 to 15 days
[15] = 62 g ai/ha, scale 0 to 100 (0 no effect, 100 complete control), 13 to 15 days
[16] = 250 g ai/ha, scale 0 to 100, 0 is no effect, 100 is complete control
[17] = Postemergence, 31 g ai/ha, visually evaluated after 13 to 15 days
[18] = 250 g ai/ha, scale 0 to 100 (0 no effect, 100 complete control)
[19] = 125 g ai/ha, scale 0 to 100, 0 no effect, 100 complete control

O=C(NC1CC1)c1cc(CCCl)n(Cc2ccnc(C(F)(F)F)c2)n1 [Compound 144]
Foxtail, Giant plant response rating (foxtail, giant [1]; [12]): 90
Foxtail, Giant plant response rating (foxtail, giant [1]; [13]): 90
Velvetleaf plant response rating (velvetleaf [2]; [12]): 90
Velvetleaf plant response rating (velvetleaf [2]; [13]): 80
Wheat plant response rating (wheat [3]; [12]): 90
Wheat plant response rating (wheat [3]; [13]): 50
Corn plant response rating (corn [4]; [12]): 90
Corn plant response rating (corn [4]; [13]): 50
Galium plant response rating (galium [5]; [14]): 30
Galium plant response rating (galium [5]; [15]): 80
Plant response rating, Galium (galium [5]; 13 to 15 days): 100
Galium plant response rating (galium [5]; [16]): 100
Corn plant response rating (corn [6]; [14]): 5
Corn plant response rating (corn [6]; [15]): 20
Plant response rating, Corn (corn [6]; 13 to 15 days): 60
Corn plant response rating (corn [6]; [16]): 85
Foxtail, Giant plant response rating (foxtail, giant [7]; [14]): 75
Foxtail, Giant plant response rating (foxtail, giant [7]; [15]): 100
Plant response rating, Foxtail, Giant (foxtail, giant [7]; 13 to 15 days): 100
Foxtail, Giant plant response rating (foxtail, giant [7]; [16]): 100
Soybean plant response rating (soybean; [14]): 5
Soybean plant response rating (soybean; [15]): 50
Plant response rating, Soybean (soybean; 13 to 15 days): 80
Soybean plant response rating (soybean; [16]): 98
Waterhemp plant response rating (waterhemp; [14]): 98
Waterhemp plant response rating (waterhemp; [15]): 98
Plant response rating, Waterhemp (waterhemp; 13 to 15 days): 100
Waterhemp plant response rating (waterhemp; [16]): 100
Plant response rating (scale of 0 to 100 where 0 is no effect and 100 is complete control), Wheat (wheat [8]; [17]): 5
Plant response rating, Wheat (wheat [8]): 10
Wheat plant response rating (wheat [8]): 10
Plant response rating (scale of 0 to 100 where 0 is no effect and 100 is complete control), Galium (galium [9]): 40
Galium plant response rating (galium [9]): 55
Plant response rating, Galium (galium [9]; [18]): 85
Plant response rating, Galium (galium [9]; [19]): 70
Plant response rating (scale of 0 to 100 where 0 is no effect and 100 is complete control), Foxtail, Giant (foxtail, giant [10]): 5
Foxtail, Giant plant response rating (foxtail, giant [10]): 10
Plant response rating, Foxtail, Giant (foxtail, giant [10]; [18]): 25
Plant response rating, Foxtail, Giant (foxtail, giant [10]; [19]): 15
Plant response rating (scale of 0 to 100 where 0 is no effect and 100 is complete control), Morningglory (morningglory): 35
Morningglory plant response rating (morningglory): 40
Plant response rating, Morningglory (morningglory; [18]): 98
Plant response rating, Morningglory (morningglory; [19]): 85
Plant response rating (scale of 0 to 100 where 0 is no effect and 100 is complete control), Barnyardgrass (barnyardgrass): 10
Barnyardgrass plant response rating (barnyardgrass): 15
Plant response rating, Barnyardgrass (barnyardgrass; [18]): 15
Plant response rating, Barnyardgrass (barnyardgrass; [19]): 10
Plant response rating (scale of 0 to 100 where 0 is no effect and 100 is complete control), Kochia (kochia): 75
Kochia plant response rating (kochia): 85
Plant response rating, Kochia (kochia; [18]): 95
Plant response rating, Kochia (kochia; [19]): 95
Plant response rating (scale of 0 to 100 where 0 is no effect and 100 is complete control), Velvetleaf (velvetleaf [11]; [17]): 15
Plant response rating, Velvetleaf (velvetleaf [11]): 50
Velvetleaf plant response rating (velvetleaf [11]): 35

CCOc1cc(C(=O)NOC(C)C)nn1Cc1ccnc(C(F)(F)F)c1 [Compound 153]
Foxtail, Giant plant response rating (foxtail, giant [1]; [12]): 100
Foxtail, Giant plant response rating (foxtail, giant [1]; [13]): 100
Velvetleaf plant response rating (velvetleaf [2]; [12]): 100
Velvetleaf plant response rating (velvetleaf [2]; [13]): 70
Wheat plant response rating (wheat [3]; [12]): 100
Wheat plant response rating (wheat [3]; [13]): 90
Corn plant response rating (corn [4]; [12]): 100
Corn plant response rating (corn [4]; [13]): 90
Galium plant response rating (galium [5]; [14]): 30
Galium plant response rating (galium [5]; [15]): 100
Plant response rating, Galium (galium [5]; 13 to 15 days): 100
Galium plant response rating (galium [5]; [16]): 100
Corn plant response rating (corn [6]; [14]): 10
Corn plant response rating (corn [6]; [15]): 50
Plant response rating, Corn (corn [6]; 13 to 15 days): 95
Corn plant response rating (corn [6]; [16]): 98
Foxtail, Giant plant response rating (foxtail, giant [7]; [14]): 60
Foxtail, Giant plant response rating (foxtail, giant [7]; [15]): 85
Plant response rating, Foxtail, Giant (foxtail, giant [7]; 13 to 15 days): 100
Foxtail, Giant plant response rating (foxtail, giant [7]; [16]): 100
Soybean plant response rating (soybean; [14]): 5
Soybean plant response rating (soybean; [15]): 10
Plant response rating, Soybean (soybean; 13 to 15 days): 45
Soybean plant response rating (soybean; [16]): 80
Waterhemp plant response rating (waterhemp; [14]): 60
Waterhemp plant response rating (waterhemp; [15]): 100
Plant response rating, Waterhemp (waterhemp; 13 to 15 days): 100
Waterhemp plant response rating (waterhemp; [16]): 100
Plant response rating, Wheat (wheat [8]): 15
Wheat plant response rating (wheat [8]): 0
Plant response rating (scale of 0 to 100 where 0 is no effect and 100 is complete control), Galium (galium [9]): 50
Galium plant response rating (galium [9]): 60
Plant response rating, Galium (galium [9]; [18]): 80
Plant response rating, Galium (galium [9]; [19]): 70
Plant response rating (scale of 0 to 100 where 0 is no effect and 100 is complete control), Foxtail, Giant (foxtail, giant [10]): 5
Foxtail, Giant plant response rating (foxtail, giant [10]): 5
Plant response rating, Foxtail, Giant (foxtail, giant [10]; [18]): 65
Plant response rating, Foxtail, Giant (foxtail, giant [10]; [19]): 10
Plant response rating (scale of 0 to 100 where 0 is no effect and 100 is complete control), Morningglory (morningglory): 65
Morningglory plant response rating (morningglory): 85
Plant response rating, Morningglory (morningglory; [18]): 80
Plant response rating, Morningglory (morningglory; [19]): 70
Plant response rating (scale of 0 to 100 where 0 is no effect and 100 is complete control), Barnyardgrass (barnyardgrass): 5
Barnyardgrass plant response rating (barnyardgrass): 10
Plant response rating, Barnyardgrass (barnyardgrass; [18]): 15
Plant response rating, Barnyardgrass (barnyardgrass; [19]): 10
Plant response rating (scale of 0 to 100 where 0 is no effect and 100 is complete control), Kochia (kochia): 50
Kochia plant response rating (kochia): 70
Plant response rating, Kochia (kochia; [18]): 90
Plant response rating, Kochia (kochia; [19]): 85
Plant response rating, Velvetleaf (velvetleaf [11]): 65
Velvetleaf plant response rating (velvetleaf [11]): 30
